Data set [1] is described as follows: Pharmacokinetics after single oral (gavage) administration in rats. Conditions: different doses (up to 150 mg/kg).
Method: The objective of this study was to investigate the pharmacokinetic (PK) profile of ADEF after a single oral (gavage) administration to rats at the following doses: • Low dose: 25 and 50 mg/kg of ADEF; • Mid dose: 100 mg/kg of ADEF; • High dose: 150 mg/kg of ADEF.
For comparative study, native artesunate was also included in this study, but only at a high dose of 150 mg/kg.
After a 1-week acclimation period, ADEF was administered orally to rats, and blood samples were collected at various time intervals (5, 10, 15, 30, 45, and 60 min) using K2EDTA tubes as anticoagulants. The collected tubes were then placed on wet ice. Subsequently, the samples were centrifuged at 1000× g for 10 min at 4 °C. The resulting plasma was recovered and stored frozen at temperatures below or equal to −60 °C for further analysis.
Non-compartmental analysis of the test item and its metabolite concentrations in plasma was performed by using the Phoenix® WinNonlin®6 6.4 software.
The test system of another data set is Helicobacter pylori. Kind of data set: Agar disk diffusion assay. Conditions: paper disks, ~20 mg/mL. The data set is classed as cell-based. As to the method:
Practically, impregnated paper disks with a determined concentration (~20 mg/mL) of ADEF were deposited on the surface of a standardized culture medium previously inoculated with a calibrated inoculum of a pure culture of H. pylori. After incubation, the Petri dishes were examined, and the diameters of the zones of inhibition surrounding the disks were measured. The obtained values were thereafter compared to the critical values of the different antimicrobial standards to determine the clinical categorization (resistant, intermediate, sensitive).
In general terms: Agar diffusion results depend on both activity and mobility in agar.

On the set-up of data set [2]: method as in earlier work. Conditions: artesunate in acidic form; cited from earlier work.
Another data set in a line: in vivo. Conditions: male, Sprague-Dawley, rat, plasma, po, 150 mg/kg.
On the set-up of data set [3]: method as in PMID 17694524. Conditions: cited from earlier work.
Data set [4] is described as follows: Solubility in simulated gastric fluid (SGF, pH 1.5). Conditions: 0.5 g in 10 mL SGF pH 1.5, 36.5 °C, 30 min stirring. The data set is classed as physicochemical. As to the method:
An amount of 0.5 g of native artesunate and ADEF was dispersed in 10 mL of simulated gastric fluid (SGF, pH 1.5). All solutions were incubated at 36.5 °C under mild shaking (100 rev/min) in a G24 Environmental Incubator Shaker (New Brunswick Scientific Co., Edison, NJ, USA) for 30 min.

Another data set concerns H. pylori PremSS1. Kind of data set: In vivo efficacy against H. pylori in infected mice (bacterial culture and qPCR of stomach). Conditions: oral, single dose per day for 14 days; ADEF 40 mg/kg, amox 30 mg/kg, PPI 150 mg/kg; bacterial culture and qPCR (Figure 8A,B). Also on record: species or system C57BL/6 mice. An excerpt:
Animals: A mouse model of H.-pylori-induced disease using pre-murine Sydney strain-1 (PremSS1) in mice C57BL/6 was extensively used in Helicobacter research. The persistence of mouse colonization, distribution, and long-lasting infection is attributable to the strain’s capabilities. For these reasons mice C57BL/6 were selected in this study. In fact, male mice with «specific pathogen-free» status (CHU of Bordeaux, Amélie Raba-Léon place, Bordeaux Cedex) at 6 weeks of age were housed in an acclimatization room for 1 week before experimentation.
Mouse gavage with H. pylori: Mice were fasted the day before the gavage days. They were force-fed with approximately 10^8 H. pylori PremSS1 in 100 µL of phosphate-buffered saline in the morning and then placed in a cage for the rest of the day under normal conditions. The gavages were carried out on three consecutive days. A bacteria viability test was accomplished post-gavage by platting a bacterial pellet on «Poly-house-made» agar for 24 h. […]
Each quarter of the mouse stomach was placed in a tube that was RNASE and DNASE free, containing 200 μL of physiological water. […] The remaining 90 µL were extracted for H. pylori quantification using qPCR. […] All samples were prepared in duplicate, and the results were expressed as cfu/mg of stomach tissue. […]
Background: Quantitative PCR measures a nucleic acid by following its amplification.

SMILES strings stand for the structures.

Take `C[C@H]1[C@H](OC(=O)CCC(=O)O)O[C@@H]2O[C@@]3(C)CC[C@H]4[C@H](C)CC[C@@H]1[C@@]24OO3` [Native Artesunate, artesunate]: the “Mortality or abnormal signs” value in data set [1] is on record as “no mortality or abnormal signs”. In addition, in the data set on Helicobacter pylori, the Inhibition zone result is given as “two distinct zones were observed”. Besides, the Water solubility entry in data set [2] was “about 0.68 % (w/w)”. In addition, in “in vivo”, the AUC(0-t) came to 211 ng·h/mL, the highest level (Cmax) was 701 ng/mL, the time of peak concentration (Tmax) is 15 min and the half-life is 18 min. The “Stability in aqueous, acidic and basic media” value in data set [3] was “unstable”. Further, the “Solubility in simulated gastric fluid” value in data set [4] is on record as “did not dissolve”.

For `CC1(C)S[C@@H]2[C@H](NC(=O)[C@H](N)c3ccc(O)cc3)C(=O)N2[C@H]1C(=O)O` [amox, amoxicillin], the “Effect against H. pylori in infected mice” value in the data set with H. pylori PremSS1 was “did not exhibit a significant effect”.

`COc1ccnc(C[S+]([O-])c2nc3ccc(OC(F)F)cc3[nH]2)c1OC` (centres unmarked) [PPI, pantoprazole]: in the data set on H. pylori PremSS1, the “Effect against H. pylori in infected mice” value is “did not exhibit a significant effect”.

What is called AUC(0-t) is the area under the concentration-time curve up to a stated or last time point. Lower therefore signals low exposure. Broadly, the Cmax is the maximum level reached in the sampled fluid or tissue. The Tmax is the time at which the peak concentration occurs. Usually half-life stands for the time in which the quantity being followed falls by half. High values mean slow loss, low ones fast loss.
